Test results from ChEMBL document CHEMBL4229544, “Design, synthesis and antibacterial properties of pyrimido[4,5-b]indol-8-amine inhibitors of DNA gyrase” (Bioorg Med Chem Lett, 2018).
Converted amounts (≈) assume the structure as drawn.

Legend:
Type in all cases: functional
[1] = system: Mycobacterium tuberculosis; assay: Antitubercular activity against fluoroquinolone-resistant Mycobacterium tuberculosis H37Rv harboring gyrA D94N mutant
[2] = system: Mycobacterium tuberculosis; assay: Antitubercular activity against isoniazid-resistant Mycobacterium tuberculosis H37Rv harboring katG Y155 mutant
[3] = system: Mycobacterium tuberculosis; assay: Antitubercular activity against rifampicin-resistant Mycobacterium tuberculosis H37Rv harboring RpoB S522L mutant

| Structure (SMILES) | MIC [1] | MIC [2] | MIC [3] |
| --- | --- | --- | --- |
| COc1c(N2C[C@@H]3CCCN[C@@H]3C2)c(F)cc2c(=O)c(C(=O)O)cn(C3CC3)c12 [MOXIFLOXACIN] | 3.9 µg/mL (≈ 9.72 µM) | 0.04 µg/mL (≈ 0.0996 µM) | 0.04 µg/mL (≈ 0.0996 µM) |
| CO[C@H]1/C=C/O[C@@]2(C)Oc3c(C)c(O)c4c(O)c(c(/C=N/N5CCN(C)CC5)c(O)c4c3C2=O)NC(=O)/C(C)=C\C=C\[C@H](C)[C@H](O)[C@@H](C)[C@@H](O)[C@@H](C)[C@H](OC(C)=O)[C@@H]1C [RIFAMPIN] | 0.019 µg/mL (≈ 0.0231 µM) | 0.013 µg/mL (≈ 0.0158 µM) | 3 µg/mL (≈ 3.65 µM) |
| CO[C@@H]1[C@@H](OC(N)=O)[C@@H](O)[C@H](Oc2ccc3c(O)c(NC(=O)c4ccc(O)c(CC=C(C)C)c4)c(=O)oc3c2C)OC1(C)C [NOVOBIOCIN] | 7.35 µg/mL (≈ 12 µM) | 6.7 µg/mL (≈ 10.9 µM) | 13.5 µg/mL (≈ 22 µM) |
| NNC(=O)c1ccncc1 [ISONIAZID] | 0.05 µg/mL (≈ 0.365 µM) | >27 µg/mL | 0.014 µg/mL (≈ 0.102 µM) |
| CNc1cc(F)cc2c1[nH]c1nc(CNC(=O)c3cocn3)nc(N3CCC(N)C3)c12 (stereo not drawn) | 0.014 µg/mL (≈ 0.033 µM) | 0.013 µg/mL (≈ 0.0306 µM) | 0.012 µg/mL (≈ 0.0283 µM) |
| CNc1cc(F)cc2c1[nH]c1nc(CNC(=O)c3cnco3)nc(N3CCC(N)C3)c12 (stereo not drawn) | 0.09 µg/mL (≈ 0.212 µM) | 0.09 µg/mL (≈ 0.212 µM) | 0.09 µg/mL (≈ 0.212 µM) |
